{"source": "patent US7915293B2", "about": "“Ubiquitin ligase inhibitors” (Rigel Pharmaceuticals, Inc., priority 2003, dated 2011)"}
{"system": "A549 cells", "assay": "Cell proliferation assay, photographic image analysis of proliferation, apoptosis and death (PAD assay), A549", "format": "cell-based", "parameters": "key: “+” indicates that the compound exibits inhibitory activity; “−” indicates that low or no inhibitory activity was observed", "conditions": "6 concentrations tested", "protocol": "A549 (ATCC# CCL-185), HeLa (ATCC# CCL-2), HCT116 (ATCC# CCL-247), and H1299 (ATCC# CRL-5803) cells were maintained in T175 flasks following the ATCC recommended media and handling procedures. Flasks reaching approximately 70% confluency were trypsinized and resuspended in RPMI media (Cell-Gro catalog number 10-040-CM) modified to contain 5% FBS, 100 ug/mlPen/Strep (Cell-Gro catalog number 30-002-CL), and 0.3 mg/ml L-Glutamine (Cell-Gro catalog number 25-003-CL). A 20,000 cells/ml solution was made for plating. Cells were plated in black Packard 96 well plates by placing 100 μl per well (2,000 cells per well).\nCompounds and additional media were added 24 hours after cell plating. A compound master plate was created with concentrations 500 times greater than the final concentration added to the cells. All compound testing was done in duplicate using 6.3 fold dilutions starting with 10 mM. All outside wells (and 4 internal wells) were DMSO controls. Taxol and at least one additional control were run on all plates. Three microliters of the compound master plate were added to deep well blocks containing 750 μl of RPMI media. One hundred microliters were transferred from the compound/media deep well blocks to the plated cells resulting in a 500 fold dilution of the compounds. Cells were grown at 37° C., 5% CO2 for 48 hours.\nCells to be analyzed by photography were fixed and stained. One hundred microliters of media were removed and 100 μl of 9.3% […] was added to each well. Plates were left on the benchtop for 45 minutes. A staining solution containing 1.55 μl of 1 mg/ml DAPI added to 18.75 ml PBS was warmed for 15 minutes at 37° C. The cells were aspirated prior to washing with 100 μl of PBS. Seventy microliters of PBS were aspirated and 170 μl of the DAPI solution were added to each well of fixed cells. Plates were left at room temperature for one hour then aspirated and washed twice with 100 μl of PBS. The stained cells were left at 4° C. for a minimum of 16 hours before photographic analysis with Array Scan II (Cellomics). Analysis of the photographic images to determine numbers of live cells (proliferation), apoptotic cells and dead cells, were according to the methods described in U.S. Provisional Patent Application Ser. No. 60/406,714, which incorporated herein in its entirety."}
{"smiles": "O=[N+]([O-])c1ccc(Oc2c(Cl)cc(S(=O)(=O)Nc3ccc(F)cc3F)cc2Cl)c(Cl)c1", "note": "[Example 17, 3,5-dichloro-4-(2-chloro-4-nitrophenoxy)-N-(2,4-difluorophenyl)benzene-sulfonamide]", "PAD Assay, A549 6 pt": "−"}
{"molecular_target": "E3 (His-APC11/APC2-\"APC\") (Homo sapiens, UniProt Q9NYG5+Q9UJX6)", "sequence (Q9NYG5 whole entry)": "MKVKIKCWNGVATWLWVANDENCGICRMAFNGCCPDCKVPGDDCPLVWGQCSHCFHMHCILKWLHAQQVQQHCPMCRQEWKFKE", "sequence (Q9UJX6 whole entry)": "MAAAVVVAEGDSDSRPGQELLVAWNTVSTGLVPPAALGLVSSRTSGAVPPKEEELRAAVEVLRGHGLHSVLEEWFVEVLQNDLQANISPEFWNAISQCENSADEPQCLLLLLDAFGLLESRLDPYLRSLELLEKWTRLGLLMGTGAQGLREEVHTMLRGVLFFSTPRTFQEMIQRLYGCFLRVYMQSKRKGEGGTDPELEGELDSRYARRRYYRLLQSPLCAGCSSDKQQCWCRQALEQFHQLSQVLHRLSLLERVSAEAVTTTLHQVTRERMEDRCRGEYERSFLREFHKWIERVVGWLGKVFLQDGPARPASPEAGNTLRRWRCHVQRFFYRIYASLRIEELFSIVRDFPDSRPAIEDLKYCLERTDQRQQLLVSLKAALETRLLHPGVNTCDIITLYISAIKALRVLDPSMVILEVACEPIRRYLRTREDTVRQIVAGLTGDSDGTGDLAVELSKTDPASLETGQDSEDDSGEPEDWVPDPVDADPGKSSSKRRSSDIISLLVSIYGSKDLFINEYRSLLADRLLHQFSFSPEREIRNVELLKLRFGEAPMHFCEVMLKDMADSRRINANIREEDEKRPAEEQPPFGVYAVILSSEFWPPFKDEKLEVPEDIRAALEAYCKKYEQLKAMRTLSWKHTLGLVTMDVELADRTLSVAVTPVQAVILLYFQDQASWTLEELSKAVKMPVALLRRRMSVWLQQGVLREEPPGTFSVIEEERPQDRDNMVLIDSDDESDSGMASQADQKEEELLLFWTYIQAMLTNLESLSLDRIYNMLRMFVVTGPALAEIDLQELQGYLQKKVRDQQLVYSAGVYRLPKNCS", "assay": "Plate-based E3 ligase assay (APC FLAG), auto-ubiquitination", "format": "biochemical", "parameters": "key: “+” indicates that the compound exibits inhibitory activity; “−” indicates that low or no inhibitory activity was observed", "conditions": "2 concentrations tested", "protocol": "(§1) E3 (His-APC11/APC2-“APC”) auto-ubiquitination was measured as described in U.S. patent application Ser. No. 09/826,312 (Publication No. US-2002-0042083-A1), which is incorporated herein in its entirety. Details of the protocol are described below. Activity in the presence of the compound was determined relative to a parallel control in which only DMSO was added. Values of the IC50 were typically determined using 6 or 8 different concentrations of the compound, although as few as 2 concentrations may be used to approximate the IC50 value.\n(§2) Nickel-coated 96-well plates (Pierce 15242) were blocked for 1 hour with 100 μl of blocking buffer at room temperature. The plates were washed 4 times with 225 μl of 1×PBS and 80 μl of the reaction buffer were added that contained 100 ng/well of Flag-ubiquitin. To this, 10 μl of the test compound diluted in DMSO were added. After the test compound was added, 10 μl of E1 (human), E2 (Ubch5c), and APC in Protein Buffer was added to obtain a final concentration of 5 ng/well of E1, 20 ng/well of E2 and 100 ng/well of APC. The plate were shaken for 10 minutes and incubated at room temperature for 1 hour. After incubation, the plates were washed 4 times with 225 μl of 1×PBS and 100 μl/well of Antibody Mix were added to each well. The plates were incubate at room temperature for another hour after which they were washed 4 times with 225 μl of 1×PBS and 100 μl/well of Lumino substrate were added to each well. The luminescence was measured by using a BMG luminescence microplate reader.\n(§3) To prepare the Blocking Buffer (1 liter; 1% Casein in 1×PBS), 10 grams of Casein (Hammersten Grade Casein from Gallard-Schlesinger Inc. #440203) were placed into 1 liter of 1×PBS, stirred on a hot plate and kept between 50-60° C. for an hour. The buffer was allowed to cool to room temperature and then filtered using a Buchner Funnel (Buchner filter funnel 83 mm 30310-109) and Whatman filter paper (Whatman Grade No. 1 Filter paper 28450-070). It was stored at 4° C. until used.\n(§4) The reaction buffer consisted of 62.5 mM Tris pH 7.6 (Trizma Base—Sigma T-8524), 3 mM MgCl2 (Magnesium Chloride—Sigma M-2393), 1 mM DTT (Sigma D-9779), 2.5 mM ATP (Roche Boehringer Mann Corp. 635-316), 100 ng/well of Flag-ubiquitin, 0.1% BSA (Sigma A-7906), and 0.05% Tween-20 (Sigma P-7949).\n(§5) The Protein Buffer consisted of 20 mM Tris pH 7.6, 10% glycerol (Sigma G-5516) and 1 mM DTT.\n(§6) The antibody mix consisted of 0.25% BSA (Sigma A-7906) in 1×PBS, 1/50,000 anti-Flag (Sigma F-3165), 1/100,000 of anti-Mouse IgG-HRP (Jackson Immunoresearch #115-035-146).\n(§7) The substrate mix consisted of SuperSignal Substrate from Pierce (catalog number 37070ZZ) and was prepared by mixing 100 ml of the peroxide solution, 100 ml of the enhancer solution and 100 ml of Milli-Q® water."}
{"smiles": "CN(c1cc(Cl)cc(Cl)c1)S(=O)(=O)c1cc(Cl)c(Oc2ccc([N+](=O)[O-])cc2Cl)c(Cl)c1", "note": "[Example 190, 3,5-dichloro-4-(2-chloro-4-nitrophenoxy)-N-(3,5-dichlorophenyl)-N-methylbenzene-sulfonamide]", "APC Flag (2 pt)": "− (2 pt)"}
{"smiles": "Cc1c(Cl)cccc1NS(=O)(=O)c1ccc(Oc2ccc(Cl)cc2)cc1", "note": "[Example 194, N-(3-chloro-2-methylphenyl)-4-(4-chloro-phenoxy)benzenesulfonamide]", "APC Flag (2 pt)": "− (2 pt)"}
{"smiles": "O=S(=O)(Nc1ccc(F)c(Cl)c1)c1ccc(Oc2ccc(Cl)cc2)cc1", "note": "[Example 195, N-(3-chloro-4-fluorophenyl)-4-(4-chloro-phenoxy)benzenesulfonamide]", "APC Flag (2 pt)": "− (2 pt)"}
{"smiles": "O=S(=O)(Nc1cccc(Br)c1)c1ccc(Oc2ccc(Cl)cc2)cc1", "note": "[Example 196, N-(3-bromophenyl)-4-(4-chlorophenoxy) benzenesulfonamide]", "APC Flag (2 pt)": "− (2 pt)"}
{"smiles": "CC(C)c1ccccc1NS(=O)(=O)c1cc(Cl)c(Oc2ccc([N+](=O)[O-])cc2Cl)c(Cl)c1", "note": "[Example 227, 3,5-dichloro-4-(2-chloro-4-nitrophenoxy)-N-(2-isopropylphenyl)benzenesulfonamide]", "APC Flag (2 pt)": "− (2 pt)"}
{"molecular_target": "E3 (His-APC11/APC2-\"APC\") (Homo sapiens, UniProt Q9NYG5+Q9UJX6)", "assay": "Plate-based E3 ligase assay (APC FLAG), auto-ubiquitination", "format": "biochemical", "parameters": "key: “+” indicates that the compound exibits inhibitory activity; “−” indicates that low or no inhibitory activity was observed", "conditions": "8 concentrations tested", "protocol": "as §1, §2, §3, §4, §5, §6, §7"}
{"smiles": "O=[N+]([O-])c1ccc(Oc2c(Cl)cc(S(=O)(=O)Nc3ccc(F)cc3F)cc2Cl)c(Cl)c1", "note": "[Example 17, 3,5-dichloro-4-(2-chloro-4-nitrophenoxy)-N-(2,4-difluorophenyl)benzene-sulfonamide]", "APC Flag 8 pt": "+"}
{"smiles": "O=[N+]([O-])c1ccc(Oc2c(Cl)cc(S(=O)(=O)Nc3ccc(F)c(F)c3)cc2Cl)c(Cl)c1", "note": "[Example 197, 3,5-dichloro-4-(2-chloro-4-nitrophenoxy)-N-(3,4-difluorophenyl)benzenesulfonamide]", "APC Flag 8 pt": "+"}
{"smiles": "Cc1ccc(NS(=O)(=O)c2cc(Cl)c(Oc3ccc([N+](=O)[O-])cc3Cl)c(Cl)c2)cc1F", "note": "[Example 198, 3,5-dichloro-4-(2-chloro-4-nitrophenoxy)-N-(3-fluoro-4-methylphenyl)benzene-sulfonamide]", "APC Flag 8 pt": "+"}
{"smiles": "N=C(Nc1ccc(Cl)cc1)NS(=O)(=O)c1cc(Cl)c(Oc2ccc([N+](=O)[O-])cc2Cl)c(Cl)c1", "note": "[Example 211, 3,5-dichloro-4-(2-chloro-4-nitrophenoxy)-N-[[(4-chlorophenyl)amino](imino)methyl] benzenesulfonamide]", "APC Flag 8 pt": "+"}
{"smiles": "N=C(NS(=O)(=O)c1cc(Cl)c(Oc2ccc([N+](=O)[O-])cc2Cl)c(Cl)c1)c1ccccc1", "note": "[Example 212, N-{[3,5-dichloro-4-(2-chloro-4-nitro-phenoxy)phenyl]sulfonyl}benzene-carboximidamide]", "APC Flag 8 pt": "−"}
{"smiles": "N=C(Nc1nc2ccccc2[nH]1)NS(=O)(=O)c1cc(Cl)c(Oc2ccc([N+](=O)[O-])cc2Cl)c(Cl)c1", "note": "[Example 225, N-[(1H-benzimidazol-2-ylamino)(imino)methyl]-3,5-dichloro-4-(2-chloro-4-nitro-phenoxy)benzenesulfonamide]", "APC Flag 8 pt": "+"}
{"smiles": "O=[N+]([O-])c1ccc(Oc2c(Cl)cc(S(=O)(=O)Nc3cc(Cl)cnc3Cl)cc2Cl)c(Cl)c1", "note": "[Example 233, 3,5-dichloro-4-(2-chloro-4-nitrophenoxy)-N-(2,5-dichloropyridin-3-yl)benzene-sulfonamide]", "APC Flag 8 pt": "+"}
{"smiles": "O=[N+]([O-])c1ccc(Oc2c(Cl)cc(S(=O)(=O)Nc3cccc(F)c3F)cc2Cl)c(Cl)c1", "note": "[Example 239, 3,5-dichloro-4-(2-chloro-4-nitrophenoxy)-N-(2,3-difluorophenyl)benzenesulfonamide]", "APC Flag 8 pt": "+"}
{"smiles": "Cc1ccc(S(=O)(=O)Nc2ccc(Oc3c([N+](=O)[O-])cc(C(F)(F)F)cc3[N+](=O)[O-])c(Cl)c2)cc1", "note": "[Example 247, N-{3-chloro-4-[2,6-dinitro-4-(trifluoro-methyl)phenoxy]phenyl}-4-methylbenzene-sulfonamide]", "APC Flag 8 pt": "+"}
{"smiles": "O=[N+]([O-])c1cc(C(F)(F)F)cc([N+](=O)[O-])c1Oc1ccc(NS(=O)(=O)c2ccc(Cl)cc2)cc1Cl", "note": "[Example 248, 4-chloro-N-{3-chloro-4-[2,6-dinitro-4-(tri-fluoromethyl)phenoxy]phenyl}benzene-sulfonamide]", "APC Flag 8 pt": "−"}
{"smiles": "O=[N+]([O-])c1ccc(F)c(NS(=O)(=O)c2ccc(Oc3ccc([N+](=O)[O-])cc3C(F)(F)F)c(Cl)c2)c1", "note": "[Example 260, 3-chloro-N-(2-fluoro-5-nitrophenyl)-4-[4-nitro-2-(trifluoromethyl)phenoxy]benzene-sulfonamide]", "APC Flag 8 pt": "+"}
{"smiles": "CC(=O)N(C(C)=O)c1ccc(Oc2c(Cl)cc(S(=O)(=O)Nc3cccc(Cl)c3)cc2Cl)c(Cl)c1", "note": "[Example 280, N-acetyl-N-[3-chloro-4-(2,6-dichloro-4-{[(3-chlorophenyl)amino]sulfonyl}phenoxy)phenyl]acetamide]", "APC Flag 8 pt": "+"}
{"smiles": "O=[N+]([O-])c1ccc(Oc2c(Cl)cc(S(=O)(=O)Nc3cc(OC(F)(F)F)ccc3Br)cc2Cl)c(Cl)c1", "note": "[Example 293, N-(2-bromo-5-(trifluoromethoxy)phenyl)-3,5-dichloro-4-(2-chloro-4-nitrophenoxy)benzenesulfonamide]", "APC Flag 8 pt": "+"}
{"smiles": "O=C(Nc1cc(C(F)(F)F)ccc1Cl)N1CCC(Oc2ccccc2C(F)(F)F)CC1", "note": "[Example 307, N-(2-chloro-5-(trifluoromethyl)phenyl)-4-(2-(trifluoromethyl)phenoxy)piperidine-1-carboxamide]", "APC Flag 8 pt": "−"}
{"smiles": "O=C(Nc1cc(Cl)ccc1Cl)N1CCC(Oc2ccccc2C(F)(F)F)CC1", "note": "[Example 308, N-(2,5-dichlorophenyl)-4-(2-(trifluoromethyl)phenoxy)piperidine-1-carboxamide]", "APC Flag 8 pt": "−"}
{"smiles": "O=C(Nc1cc(C(F)(F)F)ccc1Cl)N1CCC(Oc2ncccn2)CC1", "note": "[Example 309, N-(2-chloro-5-(trifluoromethyl)phenyl)-4-(pyrimidin-2-yloxy)piperidine-1-carboxamide]", "APC Flag 8 pt": "−"}
